Measurements taken from ChEMBL document CHEMBL4145528, “Novel dissymmetric 3,5-bis(arylidene)-4-piperidones as potential antitumor agents with biological evaluation in vitro and in vivo” (Eur J Med Chem, 2018).
Calls of active or inactive are those of the source. The rule behind the calls is not given here.

How the values were obtained:
HeLa = assay: Cytotoxicity against human HeLa cells assessed as reduction in cell viability after 24 hrs by MTT assay; assay type: functional, cell-based
L02 = assay: Cytotoxicity against human LO2 cells assessed as reduction in cell viability after 24 hrs by MTT assay; assay type: cell-based; conditions: L02, 24 h
THP-1 = assay: Cytotoxicity against human THP1 cells assessed as reduction in cell viability after 24 hrs by MTT assay; assay type: functional, cell-based; conditions: for IC50: THP-1, 24 h
K562 = assay: Cytotoxicity against human K562 cells assessed as reduction in cell viability after 24 hrs by MTT assay; assay type: functional, cell-based; conditions: for IC50: K562, 24 h
HepG2 [1] = assay: Downregulation of Bcl2 protein expression in human HepG2 cells at 50 uM after 3 hrs by western blot analysis; assay type: functional, cell-based
HepG2 [2] = assay: Upregulation of Bax protein expression in human HepG2 cells at 50 uM after 3 hrs by western blot analysis; assay type: functional, cell-based
HepG2 [3] = assay: Cytotoxicity against human HepG2 cells assessed as reduction in cell viability after 24 hrs by MTT assay; assay type: functional, cell-based; conditions: for IC50: HepG2, 24 h
HepG2 [4] = assay: Antitumor activity against human HepG2 cells xenografted in Balb/c nude mouse assessed as tumor growth inhibition at 1 mg/kg/2 days, ip for 20 days measured on day 21; assay type: functional, organism-based
HepG2 [5] = assay: Antitumor activity against human HepG2 cells xenografted in Balb/c nude mouse assessed as tumor growth inhibition at 10 mg/kg/day, ip daily for 20 days measured on day 21; assay type: functional, organism-based
[6] = Drug uptake in human HepG2 cell nucleus at 10 mg/ml after 1 to 3 hrs by Hoechst 33342 staining based confocal laser scanning microscopic method; assay type: ADME, subcellular
HepG2 [7] = assay: Induction of apoptosis in human HepG2 cells after 24 hrs by Annexin V-FITC/propidium iodide staining based flow cytometry; assay type: functional, cell-based
[8] = Drug uptake in human HepG2 cell cytoplasm at 10 mg/ml after 1 to 3 hrs by Hoechst 33342 staining based confocal laser scanning microscopic method; assay type: ADME, subcellular
[9] = Drug uptake in human HepG2 cell cytoplasm at 10 mg/ml after 4 hrs by Hoechst 33342 staining based confocal laser scanning microscopic method; assay type: ADME, subcellular; conditions: hepg2, 4 h
HepG2 [10] = assay: Cytotoxicity against human HepG2 cells assessed as cell morphology disruption at 10 mg/ml after 4 hrs by Hoechst 33342 staining based confocal laser scanning microscopic method; assay type: functional
Mus musculus = assay: Toxicity in Balb/c nude mouse xenografted with human HepG2 cells assessed as change in body weight at 10 mg/kg/day, ip daily for 20 days measured every 2 days during compound dosing; assay type: organism-based; conditions: in vivo
[11] = Drug uptake in human HepG2 cell nucleus at 10 mg/ml after 4 hrs by Hoechst 33342 staining based confocal laser scanning microscopic method; assay type: ADME, subcellular; conditions: hepg2, 4 h

Compound | IC50 (HeLa) [µM] | IC50 (L02) [µM] | IC50 (THP-1) [µM] | IC50 (K562) [µM] | IC50 (HepG2 [3]) [µM] | also measured
COc1cc(/C=C2\CN(C)C/C(=C\c3ccc(C#N)cc3)C2=O)cc(OC)c1OC | 3.42 | 18.6 | 0.82 | 4.29 | 1.14 | Activity (HeLa): Dose-dependent effect; Activity (THP-1): Dose-dependent effect; Activity (K562): Dose-dependent effect; Activity (HepG2 [1]): Active; Activity (HepG2 [2]): Active; Activity (HepG2 [3]): Dose-dependent effect
CN1C/C(=C\c2cccc([N+](=O)[O-])c2)C(=O)/C(=C/c2ccccc2F)C1 | 2.34 | 13.5 | 1.01 | 3.89 | 1.08 | –
COc1cc(/C=C2\CN(C)C/C(=C\c3ccc(Cl)cc3Cl)C2=O)cc(OC)c1OC | > 20 | 13.4 | 5.02 | > 20 | 8.8 | –
COc1cc(/C=C2\CN(C)C/C(=C\c3cccc([N+](=O)[O-])c3)C2=O)cc(OC)c1 | 2.56 | 10.8 | 1.77 | 4.42 | 1.84 | –
COc1cc(/C=C2\CN(C)C/C(=C\c3ccc(F)cc3)C2=O)cc(OC)c1OC | 7.25 | 10.7 | 6.13 | 10.2 | 7.34 | –
COc1cc(/C=C2\CN(C)C/C(=C\c3ccc(Cl)c(Cl)c3)C2=O)cc(OC)c1OC | 13.5 | 18.4 | 5.33 | 16.1 | 6.96 | –
COc1cc(/C=C2\CN(C)C/C(=C\c3cc(OC)c(OC)c(OC)c3)C2=O)cc(OC)c1 | 2.3 | 14.6 | 0.72 | 3.47 | 0.89 | Activity (HeLa): Dose-dependent effect; Activity (THP-1): Dose-dependent effect; Activity (K562): Dose-dependent effect; Activity (HepG2 [1]): Active; Activity (HepG2 [2]): Active; Activity (HepG2 [3]): Dose-dependent effect
CN1C/C(=C\c2ccc(Br)cc2)C(=O)/C(=C/c2cccc([N+](=O)[O-])c2)C1 | 11.9 | 9.85 | 7.69 | > 20 | 8.8 | –
COc1ccc(/C=C2\CN(C)C/C(=C\c3ccccc3F)C2=O)cc1 | 23.4 | 22.1 | 15.4 | 18.4 | 12.2 | –
COc1cc(/C=C2\CN(C)C/C(=C\c3cccc([N+](=O)[O-])c3)C2=O)cc(OC)c1OC | 5.54 | 13.6 | 0.89 | 4.2 | 1.89 | –
CN1C/C(=C\c2ccc(C#N)cc2)C(=O)/C(=C/c2ccc(C(F)(F)F)cc2)C1 | 3.21 | 17.2 | 1.43 | 4.01 | 0.98 | –
CN1C/C(=C\c2cccc(Br)c2)C(=O)/C(=C/c2cccc([N+](=O)[O-])c2)C1 | 11.1 | 8.07 | 4.03 | 12.2 | 4.89 | –
COc1cc(/C=C2\CN(C)C/C(=C\c3ccc(Cl)cc3)C2=O)cc(OC)c1 | 11.2 | 18.9 | 5.86 | 13.3 | 5.95 | –
COc1cc(/C=C/C(=O)CC(=O)/C=C/c2ccc(O)c(OC)c2)ccc1O [CURCUMIN] | 31.9 | 25.7 | 22.5 | 23.1 | 13.8 | –
CN1C/C(=C\c2ccc(F)cc2)C(=O)/C(=C/c2cccc([N+](=O)[O-])c2)C1 | 6.25 | 17.6 | 7.16 | 11.2 | 9.34 | –
CN1C/C(=C\c2ccc(Cl)cc2)C(=O)/C(=C/c2ccc(C#N)cc2)C1 | 11.2 | 16.2 | 3.18 | 13.3 | 5.95 | –
CN1C/C(=C\c2cccc([N+](=O)[O-])c2)C(=O)/C(=C/c2ccc(Cl)cc2Cl)C1 | 8.9 | 14 | 3.56 | 12.4 | 4.8 | –
COc1cc(/C=C2\CN(C)C/C(=C\c3ccc(Cl)cc3Cl)C2=O)cc(OC)c1 | 7.76 | 18.8 | 6.07 | 11.9 | 6.25 | –
COc1cc(/C=C2\CN(C)C/C(=C\c3ccc(Cl)cc3)C2=O)cc(OC)c1OC | > 20 | 14 | 7.2 | > 20 | 8.25 | –

Compound | IC50 (HeLa) [µM] | IC50 (L02) [µM] | IC50 (THP-1) [µM] | IC50 (K562) [µM] | IC50 (HepG2 [3]) [µM] | also measured
CN1C/C(=C\c2cccc([N+](=O)[O-])c2)C(=O)/C(=C/c2ccc(Cl)c(Cl)c2)C1 | 9.12 | 14.8 | 5.02 | 15.5 | 5.96 | –
CN1C/C(=C\c2ccc(C(F)(F)F)cc2)C(=O)/C(=C/c2cccc([N+](=O)[O-])c2)C1 | 3.56 | 12.4 | 0.97 | 4.78 | 1.04 | Activity (HeLa): Dose-dependent effect; Activity (THP-1): Dose-dependent effect; Activity (K562): Dose-dependent effect; Activity (HepG2 [1]): Active; Activity (HepG2 [2]): Active; Activity (HepG2 [3]): Dose-dependent effect
COc1cc(/C=C2\CN(C)C/C(=C\c3ccc(F)cc3)C2=O)cc(OC)c1 | 10.2 | 21.9 | 5.04 | 11.2 | 6.14 | –
CN1C/C(=C\c2ccc(C#N)cc2)C(=O)/C(=C/c2ccccc2F)C1 | 1.34 | 11 | 0.81 | 2.67 | 0.59 | –
COc1cccc2c1C(=O)c1c(O)c3c(c(O)c1C2=O)C[C@@](O)(C(=O)CO)C[C@@H]3O[C@H]1C[C@H](N)[C@H](O)[C@H](C)O1 [DOXORUBICIN] | 2.23 | 6.93 | 0.67 | – | 0.68 | TGI (HepG2 [4]): Active
COc1cc(/C=C2\CN(C)C/C(=C\c3ccc(Cl)c(Cl)c3)C2=O)cc(OC)c1 | 6.9 | 10.6 | 3.26 | 9.49 | 3.84 | –
CN1C/C(=C\c2ccc(C#N)cc2)C(=O)/C(=C/c2ccc(Cl)cc2Cl)C1 | 7.76 | 10.8 | 1.91 | 11.9 | 6.25 | –
COc1cc(/C=C2\CN(C)C/C(=C\c3ccccc3F)C2=O)cc(OC)c1 | 5.45 | 11.9 | 1.17 | 6.32 | 1.24 | –
COc1ccc(/C=C2\CN(C)C/C(=C\c3ccccc3F)C2=O)cc1OC | 14.3 | 10.5 | 11.2 | 18 | 8.76 | –
COc1cc(/C=C2\CN(C)C/C(=C\c3ccc(Br)cc3)C2=O)cc(OC)c1OC | 11.9 | 15.4 | 5.33 | 12.4 | 6.8 | –
CN1C/C(=C\c2ccc(F)cc2)C(=O)/C(=C/c2ccc(C#N)cc2)C1 | 10.2 | 20.9 | 5.03 | 11.2 | 6.14 | –
COc1cc(/C=C2\CN(C)C/C(=C\c3ccccc3F)C2=O)cc(OC)c1OC | 3.22 | 12.1 | 0.64 | 4.34 | 0.67 | TGI (HepG2 [5]): Active; Activity (HeLa): Dose-dependent effect; Drug uptake [6]: Not Active; Activity (HepG2 [7]): Dose-dependent effect; Activity (THP-1): Dose-dependent effect; Activity (K562): Dose-dependent effect; Activity (HepG2 [1]): Active; Drug uptake [8]: Active; Activity (HepG2 [2]): Active; Drug uptake [9]: Not Active; Activity (HepG2 [10]): Active; Activity (Mus musculus): Non-Toxic; Drug uptake [11]: Active; Activity (HepG2 [3]): Dose-dependent effect
CN1C/C(=C\c2ccc(Br)cc2)C(=O)/C(=C/c2ccc(C#N)cc2)C1 | 5.9 | 10.5 | 4.4 | 7.42 | 4.84 | –
CN1C/C(=C\c2ccc(Cl)cc2)C(=O)/C(=C/c2cccc([N+](=O)[O-])c2)C1 | > 20 | > 20 | 7.87 | > 20 | 8.21 | –
CN1C/C(=C\c2ccc(C(F)(F)F)cc2)C(=O)/C(=C/c2ccccc2F)C1 | 6.56 | 18.6 | 5.93 | 6.34 | 4.14 | –
COc1cc(/C=C2\CN(C)C/C(=C\c3ccc(C#N)cc3)C2=O)cc(OC)c1 | 3.42 | 14 | 0.94 | 4.65 | 0.88 | –
CN1C/C(=C\c2ccc(C(C)(C)C)cc2)C(=O)/C(=C/c2ccccc2F)C1 | 15.5 | 25.8 | 13.4 | 18.2 | 9.12 | –
COc1cc(/C=C2\CN(C)C/C(=C\c3ccc(Br)cc3)C2=O)cc(OC)c1 | 5.9 | 21.3 | 4.27 | 7.42 | 4.84 | –
